Experimental data taken from ChEMBL document CHEMBL1201862, “PubChem BioAssay data set” (2004).
Active and inactive are the calls of the source.

Key:
[1] = molecular target: Guanyl-specific ribonuclease T1 (Aspergillus oryzae (strain ATCC 42149 / RIB 40), UniProt P00651); assay: inhibition of ribonuclease T1 activity – biochemical, fluorescence polarization, 1536-well, counter-screen for TPT1 inhibitor project, dose response (AID 2167)
[2] = molecular target: Intestinal-type alkaline phosphatase (Mus musculus, UniProt P24822); assay: mouse intestinal alkaline phosphatase activators, dose response, biochemical, luminescence, uHTS hits (AID 488783); format: functional
Sequence of Intestinal-type alkaline phosphatase (Mus musculus, UniProt P24822) (P24822 whole entry): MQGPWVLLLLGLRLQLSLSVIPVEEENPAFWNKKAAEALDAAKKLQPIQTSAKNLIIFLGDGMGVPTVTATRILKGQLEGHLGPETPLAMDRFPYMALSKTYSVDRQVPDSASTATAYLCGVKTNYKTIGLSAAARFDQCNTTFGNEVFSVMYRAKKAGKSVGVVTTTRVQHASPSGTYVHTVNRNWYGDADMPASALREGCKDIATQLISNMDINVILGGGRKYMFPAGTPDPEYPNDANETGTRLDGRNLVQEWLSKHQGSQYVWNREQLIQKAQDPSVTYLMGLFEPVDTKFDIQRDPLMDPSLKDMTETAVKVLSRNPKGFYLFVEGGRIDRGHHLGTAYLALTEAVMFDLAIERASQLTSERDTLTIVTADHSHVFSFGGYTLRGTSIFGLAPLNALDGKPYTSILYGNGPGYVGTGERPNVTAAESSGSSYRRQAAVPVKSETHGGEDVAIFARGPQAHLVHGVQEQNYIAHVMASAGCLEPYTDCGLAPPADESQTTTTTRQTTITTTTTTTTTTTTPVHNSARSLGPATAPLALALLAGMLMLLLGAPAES

[3] = molecular target: Intestinal-type alkaline phosphatase (Homo sapiens, UniProt P09923); assay: activation of human intestinal alkaline phosphatase – biochemical, dose response (AID 488873); format: functional
Sequence of Intestinal-type alkaline phosphatase (Homo sapiens, UniProt P09923) (P09923 whole entry): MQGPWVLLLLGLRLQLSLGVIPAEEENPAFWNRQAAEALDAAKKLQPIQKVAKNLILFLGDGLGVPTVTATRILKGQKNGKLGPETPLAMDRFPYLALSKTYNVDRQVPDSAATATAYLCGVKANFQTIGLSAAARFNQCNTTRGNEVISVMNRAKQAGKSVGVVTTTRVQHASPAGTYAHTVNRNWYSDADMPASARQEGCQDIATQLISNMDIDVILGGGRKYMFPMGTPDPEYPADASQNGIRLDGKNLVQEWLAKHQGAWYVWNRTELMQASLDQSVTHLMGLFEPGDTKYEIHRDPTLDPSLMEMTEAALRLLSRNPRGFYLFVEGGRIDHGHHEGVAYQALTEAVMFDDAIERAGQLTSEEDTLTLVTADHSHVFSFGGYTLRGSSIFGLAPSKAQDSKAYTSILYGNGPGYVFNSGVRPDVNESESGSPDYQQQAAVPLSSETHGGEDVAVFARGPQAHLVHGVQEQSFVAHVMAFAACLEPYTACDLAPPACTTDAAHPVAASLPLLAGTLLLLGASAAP

HeLa = assay: viability loss in HeLa cells – cell-based, 24 h, cherry-picked samples, cytotoxicity control, dose response (AID 504726); format: functional; details: Homo sapiens;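 further: potency for cytotoxicity as loss of luminescence signal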
Large T antigen = Large T antigen (Simian virus 40, UniProt P03070); format: functional, Betapolyomavirus macacae;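 further: Confirmatory-stage PubChem screen for compounds that inhibit SV40 T antigen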
[4] = molecular target: Induced myeloid leukemia cell differentiation protein Mcl-1 (Homo sapiens, UniProt Q07820); format: functional
Sequence of Induced myeloid leukemia cell differentiation protein Mcl-1 (Q07820 whole entry): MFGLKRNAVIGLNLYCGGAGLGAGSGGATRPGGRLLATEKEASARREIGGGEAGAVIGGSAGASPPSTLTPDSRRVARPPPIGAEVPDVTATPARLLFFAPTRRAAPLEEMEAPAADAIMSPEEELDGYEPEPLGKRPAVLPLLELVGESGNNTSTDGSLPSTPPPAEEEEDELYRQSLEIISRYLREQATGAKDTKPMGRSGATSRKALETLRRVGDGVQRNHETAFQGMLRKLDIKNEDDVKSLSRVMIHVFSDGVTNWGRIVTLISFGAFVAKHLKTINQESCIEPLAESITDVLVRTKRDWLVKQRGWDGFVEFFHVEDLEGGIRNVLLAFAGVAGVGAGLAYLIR

ORF 73 = ORF 73 (Human herpesvirus 8, UniProt O40947); assay: KSHV LANA DNA-binding disruption – biochemical, fluorescence polarization, cherry-picked samples, dose response (AID 504725); parameters: species or system Human gammaherpesvirus 8;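 further: fluorescence polarization of a labeled DNA duplex reporting LANA DNA binding; potency is for inhibitors that block LANA binding to the DNA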
Sequence of ORF 73 (O40947 whole entry): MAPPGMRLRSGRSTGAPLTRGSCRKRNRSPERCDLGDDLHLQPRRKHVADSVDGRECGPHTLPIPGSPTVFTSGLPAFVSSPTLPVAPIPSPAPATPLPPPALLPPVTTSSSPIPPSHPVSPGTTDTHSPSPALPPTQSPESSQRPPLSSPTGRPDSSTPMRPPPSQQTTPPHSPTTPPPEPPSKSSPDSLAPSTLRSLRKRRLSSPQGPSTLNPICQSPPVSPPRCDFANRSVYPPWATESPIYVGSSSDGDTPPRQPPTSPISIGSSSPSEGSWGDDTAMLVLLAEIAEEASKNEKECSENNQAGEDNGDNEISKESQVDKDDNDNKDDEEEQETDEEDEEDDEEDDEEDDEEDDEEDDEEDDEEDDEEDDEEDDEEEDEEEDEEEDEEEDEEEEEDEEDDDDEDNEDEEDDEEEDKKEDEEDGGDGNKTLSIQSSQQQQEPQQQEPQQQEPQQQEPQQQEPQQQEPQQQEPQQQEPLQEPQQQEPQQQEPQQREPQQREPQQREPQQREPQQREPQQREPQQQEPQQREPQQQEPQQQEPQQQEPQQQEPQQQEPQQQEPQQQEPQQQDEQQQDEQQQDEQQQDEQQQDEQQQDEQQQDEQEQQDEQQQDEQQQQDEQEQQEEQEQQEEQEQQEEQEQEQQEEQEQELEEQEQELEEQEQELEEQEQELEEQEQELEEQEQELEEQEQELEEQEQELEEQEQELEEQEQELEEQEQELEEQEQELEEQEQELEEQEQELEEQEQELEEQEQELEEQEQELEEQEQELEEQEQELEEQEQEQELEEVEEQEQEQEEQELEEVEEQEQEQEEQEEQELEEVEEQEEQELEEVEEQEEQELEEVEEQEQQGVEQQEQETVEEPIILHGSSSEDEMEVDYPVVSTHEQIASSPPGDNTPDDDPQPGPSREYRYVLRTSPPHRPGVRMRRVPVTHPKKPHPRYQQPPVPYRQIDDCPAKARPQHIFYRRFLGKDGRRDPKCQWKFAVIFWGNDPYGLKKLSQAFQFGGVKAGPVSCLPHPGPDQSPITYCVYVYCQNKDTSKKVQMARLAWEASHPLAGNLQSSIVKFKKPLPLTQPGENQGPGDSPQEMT

Aminopeptidase N = molecular target: T1, Aminopeptidase N (Plasmodium falciparum FcB1/Columbia, UniProt O96935); assay: malaria alanyl aminopeptidase activity blockers – biochemical, fluorogenic H-Leu-NHMec substrate, 1536-well (AID 1445); parameters: species or system Plasmodium falciparum 3D7, 3D7
T1 sequence (O96935 whole entry): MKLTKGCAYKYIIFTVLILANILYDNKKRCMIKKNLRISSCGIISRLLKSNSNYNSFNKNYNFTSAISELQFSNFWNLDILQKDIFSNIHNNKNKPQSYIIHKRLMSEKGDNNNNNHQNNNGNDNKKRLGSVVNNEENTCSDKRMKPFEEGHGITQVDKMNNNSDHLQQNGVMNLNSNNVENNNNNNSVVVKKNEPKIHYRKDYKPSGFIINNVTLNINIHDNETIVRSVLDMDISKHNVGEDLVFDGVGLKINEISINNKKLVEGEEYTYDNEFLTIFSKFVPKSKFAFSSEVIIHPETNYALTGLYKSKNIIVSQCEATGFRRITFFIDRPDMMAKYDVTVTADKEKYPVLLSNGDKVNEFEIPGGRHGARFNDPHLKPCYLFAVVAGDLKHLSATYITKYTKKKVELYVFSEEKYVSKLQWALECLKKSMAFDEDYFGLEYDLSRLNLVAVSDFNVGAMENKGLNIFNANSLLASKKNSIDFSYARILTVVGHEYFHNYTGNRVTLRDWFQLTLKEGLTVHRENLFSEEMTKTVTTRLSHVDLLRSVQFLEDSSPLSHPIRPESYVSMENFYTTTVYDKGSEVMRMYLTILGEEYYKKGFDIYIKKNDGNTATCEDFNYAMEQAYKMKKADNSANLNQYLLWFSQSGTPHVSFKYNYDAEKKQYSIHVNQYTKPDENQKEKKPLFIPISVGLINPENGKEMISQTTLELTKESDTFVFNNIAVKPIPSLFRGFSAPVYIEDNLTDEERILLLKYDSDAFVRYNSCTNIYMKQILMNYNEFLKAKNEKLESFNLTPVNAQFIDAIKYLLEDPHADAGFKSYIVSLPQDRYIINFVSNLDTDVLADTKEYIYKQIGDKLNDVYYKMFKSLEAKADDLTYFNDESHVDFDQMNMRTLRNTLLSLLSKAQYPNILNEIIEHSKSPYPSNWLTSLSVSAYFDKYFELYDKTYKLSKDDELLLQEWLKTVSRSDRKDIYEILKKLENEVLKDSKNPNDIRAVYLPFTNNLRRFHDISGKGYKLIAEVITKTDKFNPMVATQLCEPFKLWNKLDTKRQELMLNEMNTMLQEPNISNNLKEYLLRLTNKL

[5] = molecular target: T2, Calpain-2 catalytic subunit (Sus scrofa, UniProt P43367); assay: m-calpain protease blockers, concentration series – biochemical, fluorogenic peptide substrate, dose response (AID 1420); format: functional
T2 sequence (P43367 whole entry): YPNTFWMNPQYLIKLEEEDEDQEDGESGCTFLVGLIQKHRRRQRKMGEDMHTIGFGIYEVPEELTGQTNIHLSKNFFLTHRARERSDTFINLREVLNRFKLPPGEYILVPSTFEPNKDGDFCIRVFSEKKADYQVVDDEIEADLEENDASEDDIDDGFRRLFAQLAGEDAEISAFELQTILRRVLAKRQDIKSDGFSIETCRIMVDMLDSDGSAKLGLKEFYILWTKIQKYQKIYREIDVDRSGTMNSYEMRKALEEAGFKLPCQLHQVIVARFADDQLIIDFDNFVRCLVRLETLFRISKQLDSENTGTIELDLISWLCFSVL

Cysteine protease ATG4B = molecular target: T3, Cysteine protease ATG4B (Homo sapiens, UniProt Q9Y4P1); format: functional;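 further: Fluorescence-based dose-response confirmation assay measuring inhibition of ATG4B activity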
T3 sequence (Q9Y4P1 whole entry): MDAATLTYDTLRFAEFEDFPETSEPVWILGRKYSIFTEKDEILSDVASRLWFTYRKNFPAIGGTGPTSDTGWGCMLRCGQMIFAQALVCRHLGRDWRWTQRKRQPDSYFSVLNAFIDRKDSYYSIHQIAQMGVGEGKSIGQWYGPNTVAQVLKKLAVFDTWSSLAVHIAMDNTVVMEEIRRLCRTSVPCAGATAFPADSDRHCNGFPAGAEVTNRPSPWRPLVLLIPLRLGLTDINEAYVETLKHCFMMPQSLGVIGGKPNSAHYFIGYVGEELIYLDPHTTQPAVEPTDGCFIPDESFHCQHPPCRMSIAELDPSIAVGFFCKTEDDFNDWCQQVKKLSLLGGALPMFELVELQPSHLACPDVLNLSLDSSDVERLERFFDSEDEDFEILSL

[6] = molecular target: Likely tRNA 2'-phosphotransferase (Candida albicans (strain SC5314 / ATCC MYA-2876) (Yeast), UniProt Q5A7N4); assay: inhibition of Candida TPT1 enzyme activity – biochemical, fluorescence polarization, dose response (AID 2160)
Sequence of Likely tRNA 2'-phosphotransferase (Q5A7N4 whole entry): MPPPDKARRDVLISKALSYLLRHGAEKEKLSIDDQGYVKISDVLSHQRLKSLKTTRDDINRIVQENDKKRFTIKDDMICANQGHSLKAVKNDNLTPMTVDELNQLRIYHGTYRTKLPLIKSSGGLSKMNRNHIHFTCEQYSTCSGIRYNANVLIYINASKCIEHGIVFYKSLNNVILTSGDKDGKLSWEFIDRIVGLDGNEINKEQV

Phospholipase A2 = Phospholipase A2 (Homo sapiens, UniProt P04054); format: functional;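 further: confirmatory dose-response counterscreen on phospholipase A2, testing hits that came from an ultra-high-throughput screen for ATG4B inhibitors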
Sequence of Phospholipase A2 (P04054 whole entry): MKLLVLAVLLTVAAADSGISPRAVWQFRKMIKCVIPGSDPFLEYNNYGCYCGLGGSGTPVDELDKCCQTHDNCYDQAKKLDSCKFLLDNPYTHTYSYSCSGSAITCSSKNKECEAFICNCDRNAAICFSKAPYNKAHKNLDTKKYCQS

[7] = molecular target: T4, Alkaline phosphatase, tissue-nonspecific isozyme (Homo sapiens, UniProt P05186); assay: activation of tissue-nonspecific alkaline phosphatase – biochemical, TNAP isozyme, mouse IAP uHTS hits, selectivity assay for mouse IAP activator project, dose response (AID 488880); format: functional
T4 sequence (P05186 whole entry): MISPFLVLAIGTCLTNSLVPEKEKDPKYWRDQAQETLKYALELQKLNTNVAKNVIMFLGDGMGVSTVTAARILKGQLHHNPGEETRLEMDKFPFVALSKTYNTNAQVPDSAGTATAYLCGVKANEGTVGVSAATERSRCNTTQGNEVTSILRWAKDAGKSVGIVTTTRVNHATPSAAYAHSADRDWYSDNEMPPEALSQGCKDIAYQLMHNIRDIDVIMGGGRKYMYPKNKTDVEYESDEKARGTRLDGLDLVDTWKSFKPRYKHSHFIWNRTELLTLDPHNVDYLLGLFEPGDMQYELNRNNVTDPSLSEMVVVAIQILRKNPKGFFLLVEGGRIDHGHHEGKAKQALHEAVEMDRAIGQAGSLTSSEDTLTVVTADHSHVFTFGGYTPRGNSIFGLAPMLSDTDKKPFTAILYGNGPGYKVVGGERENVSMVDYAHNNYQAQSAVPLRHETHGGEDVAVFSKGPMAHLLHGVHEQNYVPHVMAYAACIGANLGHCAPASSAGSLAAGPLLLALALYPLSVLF

[8] = molecular target: Bifunctional protein GlmU (Mycobacterium tuberculosis, UniProt P9WMN3); assay: Inhibitors of Mycobacterial Glucosamine-1-phosphate acetyl transferase (GlmU). Secondary screen.; parameters: species or system Mycobacterium tuberculosis H37Rv
Hexokinase = molecular target: T5, Hexokinase (Trypanosoma brucei, UniProt Q38C41); assay: Confirmation assay for inhibitors of Trypanosoma brucei hexokinase 1-Analogue-first series. [Related pubchem assays (depositor defined):AID1430, AID1632, AID2516, AID2560, AID2579, AID2600, AID449725, AID492951]; format: functional
T5 sequence (Q38C41 whole entry): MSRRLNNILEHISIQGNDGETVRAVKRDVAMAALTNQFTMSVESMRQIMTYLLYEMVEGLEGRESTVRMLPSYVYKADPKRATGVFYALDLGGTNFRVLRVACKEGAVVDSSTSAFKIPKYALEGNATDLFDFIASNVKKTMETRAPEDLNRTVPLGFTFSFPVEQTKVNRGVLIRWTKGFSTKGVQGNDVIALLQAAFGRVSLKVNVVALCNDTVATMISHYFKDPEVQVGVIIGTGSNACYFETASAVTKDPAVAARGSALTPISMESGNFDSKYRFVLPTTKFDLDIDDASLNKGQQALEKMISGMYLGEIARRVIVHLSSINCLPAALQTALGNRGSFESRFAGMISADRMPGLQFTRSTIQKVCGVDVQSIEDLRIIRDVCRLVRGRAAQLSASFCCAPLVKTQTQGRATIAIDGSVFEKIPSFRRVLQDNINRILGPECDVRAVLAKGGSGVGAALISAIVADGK

[9] = molecular target: T6, Mannose-6-phosphate isomerase (Homo sapiens, UniProt P34949); assay: phosphomannose isomerase inhibition – biochemical, fluorescence intensity, confirmation (AID 1535)
T6 sequence (P34949 whole entry): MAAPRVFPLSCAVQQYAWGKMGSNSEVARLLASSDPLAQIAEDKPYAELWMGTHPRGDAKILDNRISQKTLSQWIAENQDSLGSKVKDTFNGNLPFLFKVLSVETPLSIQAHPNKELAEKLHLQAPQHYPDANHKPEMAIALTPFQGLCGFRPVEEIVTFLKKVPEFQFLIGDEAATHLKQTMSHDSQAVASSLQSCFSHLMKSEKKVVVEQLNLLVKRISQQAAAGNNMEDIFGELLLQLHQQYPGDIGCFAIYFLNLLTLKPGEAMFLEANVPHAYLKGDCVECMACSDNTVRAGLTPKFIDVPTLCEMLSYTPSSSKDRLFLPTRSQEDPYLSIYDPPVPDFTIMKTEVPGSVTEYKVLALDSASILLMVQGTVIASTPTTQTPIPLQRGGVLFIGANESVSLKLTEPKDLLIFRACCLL

Phosphomannomutase 2 = Phosphomannomutase 2 (Homo sapiens, UniProt O15305); assay: Counter screen SAR assay for PMM2 inhibitors via a fluorescence intensity assay. [Related pubchem assays (depositor defined):AID1545, AID1574]
Sequence of Phosphomannomutase 2 (O15305 whole entry): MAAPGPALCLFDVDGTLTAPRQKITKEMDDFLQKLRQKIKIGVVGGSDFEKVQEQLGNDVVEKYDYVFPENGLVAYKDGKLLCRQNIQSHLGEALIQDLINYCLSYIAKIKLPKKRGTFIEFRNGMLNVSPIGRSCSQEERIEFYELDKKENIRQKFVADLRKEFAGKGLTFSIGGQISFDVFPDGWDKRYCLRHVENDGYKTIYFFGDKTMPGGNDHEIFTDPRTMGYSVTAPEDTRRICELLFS

[10] = molecular target: Phosphoethanolamine/phosphocholine phosphatase (Homo sapiens, UniProt Q8TCT1); assay: SAR assay for compounds that inhibit PHOSPHO1. [Related pubchem assays (depositor defined):AID1545, AID1565, AID1574]
Sequence of Phosphoethanolamine/phosphocholine phosphatase (Q8TCT1 whole entry): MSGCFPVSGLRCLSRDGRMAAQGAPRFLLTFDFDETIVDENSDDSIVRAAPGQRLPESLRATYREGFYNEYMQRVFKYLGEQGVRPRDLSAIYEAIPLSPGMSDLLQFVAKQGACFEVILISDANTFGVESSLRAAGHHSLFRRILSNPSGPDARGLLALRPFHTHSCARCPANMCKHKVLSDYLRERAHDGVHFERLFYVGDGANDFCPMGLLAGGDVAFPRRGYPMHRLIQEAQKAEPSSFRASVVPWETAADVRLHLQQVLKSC

Trypsin = Trypsin (Sus scrofa, UniProt P00761); assay: trypsin protease activity blockade – biochemical, quenched peptide fluorescence, cherry-pick, selectivity assay for Rce1 protease inhibitor project, dose response (AID 488789)
Sequence of Trypsin (P00761 whole entry): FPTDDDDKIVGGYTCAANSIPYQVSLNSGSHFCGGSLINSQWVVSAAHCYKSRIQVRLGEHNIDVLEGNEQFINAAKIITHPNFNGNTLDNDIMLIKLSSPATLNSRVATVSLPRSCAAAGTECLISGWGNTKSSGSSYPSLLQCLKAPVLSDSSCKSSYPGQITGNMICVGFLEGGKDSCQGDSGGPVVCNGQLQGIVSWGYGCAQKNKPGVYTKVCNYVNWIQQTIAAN

[11] = molecular target: Tyrosine-protein phosphatase non-receptor type 12 (Homo sapiens, UniProt Q05209); assay: SAR Selectivity Analysis of small molecule inhibitors of PEST using pCAP in a fluorescence assay. [Related pubchem assays (depositor defined):AID1779, AID1784, AID2135]; format: functional
Sequence of Tyrosine-protein phosphatase non-receptor type 12 (Q05209 whole entry): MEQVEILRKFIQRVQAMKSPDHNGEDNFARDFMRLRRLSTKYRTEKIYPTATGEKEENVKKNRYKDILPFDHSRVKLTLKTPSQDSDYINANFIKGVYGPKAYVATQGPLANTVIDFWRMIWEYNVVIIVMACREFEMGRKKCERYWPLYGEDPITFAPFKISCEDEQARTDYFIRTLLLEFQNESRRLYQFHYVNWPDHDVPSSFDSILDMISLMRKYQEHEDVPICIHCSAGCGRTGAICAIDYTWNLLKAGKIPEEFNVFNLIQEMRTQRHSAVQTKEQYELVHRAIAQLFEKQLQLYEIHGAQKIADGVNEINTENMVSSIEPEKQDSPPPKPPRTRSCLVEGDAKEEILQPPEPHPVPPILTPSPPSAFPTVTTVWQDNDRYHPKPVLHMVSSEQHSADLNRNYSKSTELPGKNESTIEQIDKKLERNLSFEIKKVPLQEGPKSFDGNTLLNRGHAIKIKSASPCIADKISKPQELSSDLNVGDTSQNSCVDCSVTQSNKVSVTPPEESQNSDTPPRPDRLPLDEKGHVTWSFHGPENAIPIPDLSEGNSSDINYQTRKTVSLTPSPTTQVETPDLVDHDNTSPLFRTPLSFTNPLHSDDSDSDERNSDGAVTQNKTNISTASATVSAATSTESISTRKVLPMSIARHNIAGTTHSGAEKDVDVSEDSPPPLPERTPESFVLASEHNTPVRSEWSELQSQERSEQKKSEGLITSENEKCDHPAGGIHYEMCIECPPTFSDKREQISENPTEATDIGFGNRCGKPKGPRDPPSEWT

[12] = molecular target: T7, Tyrosine-protein phosphatase non-receptor type 22 (Homo sapiens, UniProt Q9Y2R2); assay: SAR LYP1 Fluorescent Assay using OMFP substrate for In Vitro dose response studies - Set 3. [Related pubchem assays (depositor defined):AID1779, AID1784, AID2140, AID2686]; format: functional
T7 sequence (Q9Y2R2 whole entry): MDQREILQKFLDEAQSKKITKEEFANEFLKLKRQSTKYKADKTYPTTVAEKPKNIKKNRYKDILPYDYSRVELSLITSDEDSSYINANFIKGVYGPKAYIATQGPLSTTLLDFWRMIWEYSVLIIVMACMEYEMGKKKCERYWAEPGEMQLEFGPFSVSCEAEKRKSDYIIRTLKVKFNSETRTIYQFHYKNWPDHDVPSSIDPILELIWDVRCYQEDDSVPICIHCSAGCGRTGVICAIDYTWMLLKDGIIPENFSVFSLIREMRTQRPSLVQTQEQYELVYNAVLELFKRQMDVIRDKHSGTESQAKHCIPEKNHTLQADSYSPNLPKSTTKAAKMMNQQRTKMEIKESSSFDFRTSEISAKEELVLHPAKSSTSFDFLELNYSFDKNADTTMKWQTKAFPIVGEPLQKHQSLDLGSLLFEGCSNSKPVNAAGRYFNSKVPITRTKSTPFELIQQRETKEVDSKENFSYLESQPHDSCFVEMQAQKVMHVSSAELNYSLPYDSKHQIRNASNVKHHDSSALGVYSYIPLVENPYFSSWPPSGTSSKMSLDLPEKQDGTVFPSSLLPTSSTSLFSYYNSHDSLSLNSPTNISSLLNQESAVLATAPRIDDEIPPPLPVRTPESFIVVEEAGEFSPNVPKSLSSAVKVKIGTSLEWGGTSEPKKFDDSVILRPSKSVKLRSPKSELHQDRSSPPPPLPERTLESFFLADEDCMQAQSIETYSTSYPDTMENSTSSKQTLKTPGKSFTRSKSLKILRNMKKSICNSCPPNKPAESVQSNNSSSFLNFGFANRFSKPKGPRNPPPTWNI

[13] = molecular target: Glyceraldehyde-3-phosphate dehydrogenase (Homo sapiens, UniProt P04406)
Sequence of Glyceraldehyde-3-phosphate dehydrogenase (P04406 whole entry): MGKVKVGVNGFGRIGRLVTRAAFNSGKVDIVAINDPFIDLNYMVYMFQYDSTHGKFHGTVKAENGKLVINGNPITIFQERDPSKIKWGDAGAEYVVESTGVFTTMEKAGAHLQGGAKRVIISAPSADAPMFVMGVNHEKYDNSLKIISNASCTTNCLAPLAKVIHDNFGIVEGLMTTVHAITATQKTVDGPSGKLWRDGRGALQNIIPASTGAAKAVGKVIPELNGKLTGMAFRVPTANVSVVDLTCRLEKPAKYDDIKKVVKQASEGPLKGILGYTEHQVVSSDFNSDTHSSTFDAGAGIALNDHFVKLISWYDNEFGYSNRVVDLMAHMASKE

[14] = molecular target: T7, Tyrosine-protein phosphatase non-receptor type 22; assay: inhibition of lymphoid tyrosine phosphatase LYP – biochemical, pCAP fluorogenic substrate, fluorescence, set 3, SAR follow-up (AID 449727); format: functional

Sequence of Guanyl-specific ribonuclease T1 (P00651 whole entry): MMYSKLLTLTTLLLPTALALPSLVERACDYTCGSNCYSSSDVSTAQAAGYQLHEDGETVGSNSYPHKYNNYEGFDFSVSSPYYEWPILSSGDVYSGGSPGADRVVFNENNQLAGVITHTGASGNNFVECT

For `O=C1/C(=C/C=C/c2ccco2)SC(=S)N1NS(=O)(=O)c1ccccc1`, the IC50 [1] was 18.5 µM (not active), the EC50 [2] was 3.13 µM (active) and the EC50 [3] was > 100 µM (inactive). For the same compound, the AC50 (HeLa) was > 350 µM (inactive), the IC50 (Large T antigen) was 25.4 µM (active) and the IC50 [4] was 3.1 µM (active). The AC50 (ORF 73) was 177 µM (active), the IC50 (Aminopeptidase N) was 22.6 µM (active) and the IC50 [5] was 8.28 µM (not active). For the same compound, the IC50 (Cysteine protease ATG4B) was 7.13 µM (active), the IC50 [6] was 20.8 µM (not active) and the IC50 (Phospholipase A2) was 13 µM (active). The EC50 [7] was > 100 µM (inactive) and the IC50 [8] was 49.6 µM (active).
For `O=c1c2ccc([N+](=O)[O-])cc2sn1-c1ccccc1`, the IC50 (Hexokinase) was 11.6 µM (active), the IC50 [9] was > 50 µM (inactive) and the IC50 (Phosphomannomutase 2) was > 100 µM (inactive). For the same compound, the IC50 [10] was 4.23 µM (inactive).
`CCn1cc(C(=O)NCCO)c(=O)c2cc(F)c(N3CCN(C)CC3)cc21` was tested, and the AC50 (Trypsin) was 39.2 µM (active).
`O=C(O)c1ccc(-c2ccc(/C=C3\SC(=S)N(c4ccc([N+](=O)[O-])cc4)C3=O)o2)cc1` was tested, and the IC50 [11] was 0.216 µM (active), the IC50 [12] was 0.821 µM (active) and the IC50 [13] was > 100 µM (not active). For the same compound, the IC50 [14] was 0.602 µM (active).
